Activity calls are given as the source filed them.
How the values were obtained:
[1] = cytotoxicity toward NIH3T3 fibroblasts, dose response, counter-screen, cell-based, ATP luminescence, mouse fibroblasts (AID 2010); format: functional;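 also: cells exposed to compound for about 90 hours before reading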
[2] = target: G-protein coupled receptor 55 (Homo sapiens, UniProt Q9Y2T6); experiment: GPR55 agonists via beta-arrestin recruitment, primary screen, imaging, U2OS cells, beta-arrestin-GFP redistribution (AID 1961); format: functional
[3] = inhibitors of intracellular T. cruzi replication, confirmation, NIH3T3 host cells, beta-gal luminescence (AID 2044); format: functional, cell-based;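 also: intracellular parasites grown in NIH/3T3 mouse fibroblasts as host cells; luminescent beta-galactosidase reporter signal from transgenic T. cruzi replicating inside host cells; inhibitors lower the luminescence signal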
Protein Rev = Protein Rev (Human immunodeficiency virus type 1 group M subtype B (isolate HXB2)(HIV-1), UniProt P04618); experiment: inhibitors of Rev binding to RRE RNA, dose response, biochemical, fluorescence polarization, HIV-1 (AID 434976); set-up: species or system Human immunodeficiency virus 1
[4] = target: Female germline-specific tumor suppressor gld-1 (Caenorhabditis elegans, UniProt Q17339); experiment: inhibitors of GLD-1 binding to TGE RNA, dose response, biochemical, fluorescence polarization, C. elegans (AID 2802);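 also: fluorescence polarization of labeled TGE RNA bound by purified gld-1 protein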
cells [5] = format: functional
[6] = HepG2 cell cytotoxicity, dose response, cytotoxicity control for non-replicating M. tuberculosis project (AID 489018); format: functional; conditions: Mycobacterium tuberculosis
[7] = THP-1 cell cytotoxicity, dose response, cytotoxicity control for non-replicating M. tuberculosis project (AID 489025); format: functional
[8] = Vero E6 cell cytotoxicity, dose response, cytotoxicity control for non-replicating M. tuberculosis project, secondary assay (AID 492998); format: functional, VeroE6; conditions: Vero C1008
[9] = microbe, parasite or virus in culture; format: functional; conditions: Mycobacterium tuberculosis
[10] = Luminescence Cell-Based Dose Retest to Confirm Inhibitors of Cancer Stem Cells. [Related pubchem assays (depositor defined):AID2717, AID2721]; format: functional; conditions: Homo sapiens
Cytochrome P450 2C9 = Cytochrome P450 2C9 (Homo sapiens, UniProt P11712)
[11] = A High Throughput Confirmatory Assay used to Identify Novel Compounds that Inhibit Mycobacterium Tuberculosis in the absence of Glycerol.; format: functional
[12] = target: T1, Zinc finger protein mex-5 (Caenorhabditis elegans, UniProt Q9XUB2); experiment: MEX-5/TCR-2 RNA interaction inhibitors, dose response, biochemical, C. elegans, fluorescence polarization (AID 1960)
T1 sequence (Q9XUB2 whole entry): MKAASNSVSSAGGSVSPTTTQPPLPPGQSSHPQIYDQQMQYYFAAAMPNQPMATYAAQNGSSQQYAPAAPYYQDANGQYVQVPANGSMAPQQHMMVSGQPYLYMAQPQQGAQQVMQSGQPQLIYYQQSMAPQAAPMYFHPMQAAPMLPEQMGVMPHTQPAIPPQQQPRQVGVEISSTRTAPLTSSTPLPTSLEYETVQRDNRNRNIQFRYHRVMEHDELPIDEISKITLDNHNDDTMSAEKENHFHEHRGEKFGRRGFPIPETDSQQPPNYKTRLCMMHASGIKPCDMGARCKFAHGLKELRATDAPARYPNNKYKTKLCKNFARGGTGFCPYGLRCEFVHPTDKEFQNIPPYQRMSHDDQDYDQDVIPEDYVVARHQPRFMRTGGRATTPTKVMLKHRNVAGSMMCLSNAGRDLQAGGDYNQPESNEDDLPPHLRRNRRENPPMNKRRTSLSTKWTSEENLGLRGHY

[13] = target: T2, RNA-binding protein pos-1 (Caenorhabditis elegans, UniProt G5EF15); experiment: inhibitors of POS-1/mex-3 RNA binding, dose response, biochemical, fluorescence polarization (AID 1964);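 also: purified POS-1 fused to maltose binding protein made in E. coli; potency of compounds blocking POS-1 binding to fluorescent RNA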
T2 sequence (G5EF15 whole entry): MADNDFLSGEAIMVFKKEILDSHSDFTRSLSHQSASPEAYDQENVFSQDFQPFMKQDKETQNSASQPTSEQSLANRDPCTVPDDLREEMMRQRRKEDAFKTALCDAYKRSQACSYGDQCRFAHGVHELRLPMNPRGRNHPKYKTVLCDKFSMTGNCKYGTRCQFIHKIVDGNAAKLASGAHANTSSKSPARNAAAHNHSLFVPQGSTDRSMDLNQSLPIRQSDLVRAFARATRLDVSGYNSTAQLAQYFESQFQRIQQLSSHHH

[14] = target: Intestinal-type alkaline phosphatase (Homo sapiens, UniProt P09923); experiment: Dose Response confirmation of uHTS hits from a small molecule inhibitors of human intestinal alkaline phosphatase via a luminescent assay. [Related pubchem assays (depositor defined):AID2544, AID2574]; format: functional
[15] = target: Acyl-homoserine lactone acylase PvdQ (Pseudomonas aeruginosa (strain LESB58), UniProt Q9I194); experiment: P. aeruginosa PvdQ acylase inhibitors, dose response, biochemical, fluorescence, plate reader and imaging, cherry-picks (AID 493231)
[16] = A cytotoxicity screen of small molecule inhibitors of the PhoP region in Salmonella typhi identified in the primary screen. [Related pubchem assays: 1850, 1864, 1985 ]; format: functional
[17] = HEp-2 cell cytotoxicity, dose response, cytotoxicity control for RSV inhibitor project, HTS (AID 2410); format: functional; conditions: human respiratory syncytial virus
cells [18] = experiment: cells
[19] = A Cell Based Secondary Assay To Explore Cytotoxicity of Compounds that Sensitize Mycobacterium Tuberculosis to Beta-Lactam Antibiotics.; format: functional
cells [20] = format: functional, cell-based
HEK293 = experiment: inhibitors of LMP1-driven NF-kB reporter, dose response, cell-based, HEK293, luciferase, cherry-pick (AID 588343); format: functional; conditions: Homo sapiens
cells [21] = format: functional, cell-based; remark: listed apart in the source
[22] = target: T3, Neuropeptide Y receptor type 2 (Homo sapiens, UniProt P49146); experiment: NPY-Y2 antagonist potency, selectivity check, dose response, counter-screen for NPY-Y1 antagonist project, cell-based (AID 1278); format: functional
T3 sequence (P49146 whole entry): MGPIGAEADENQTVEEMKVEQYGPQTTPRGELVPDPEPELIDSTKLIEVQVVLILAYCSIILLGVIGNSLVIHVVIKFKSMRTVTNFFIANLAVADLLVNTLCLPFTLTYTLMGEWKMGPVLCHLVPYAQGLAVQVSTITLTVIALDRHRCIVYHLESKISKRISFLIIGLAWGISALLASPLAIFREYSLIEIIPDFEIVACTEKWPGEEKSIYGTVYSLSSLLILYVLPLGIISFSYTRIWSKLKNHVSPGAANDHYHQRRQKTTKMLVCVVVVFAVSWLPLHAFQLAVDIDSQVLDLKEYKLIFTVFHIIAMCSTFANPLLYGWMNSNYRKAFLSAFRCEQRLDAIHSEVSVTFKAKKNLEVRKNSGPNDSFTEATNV

[23] = target: T4, Neuropeptide Y receptor type 1 (Homo sapiens, UniProt P25929); experiment: NPY-Y1 receptor antagonist potency, dose response, cell-based (AID 1277); format: functional
T4 sequence (P25929 whole entry): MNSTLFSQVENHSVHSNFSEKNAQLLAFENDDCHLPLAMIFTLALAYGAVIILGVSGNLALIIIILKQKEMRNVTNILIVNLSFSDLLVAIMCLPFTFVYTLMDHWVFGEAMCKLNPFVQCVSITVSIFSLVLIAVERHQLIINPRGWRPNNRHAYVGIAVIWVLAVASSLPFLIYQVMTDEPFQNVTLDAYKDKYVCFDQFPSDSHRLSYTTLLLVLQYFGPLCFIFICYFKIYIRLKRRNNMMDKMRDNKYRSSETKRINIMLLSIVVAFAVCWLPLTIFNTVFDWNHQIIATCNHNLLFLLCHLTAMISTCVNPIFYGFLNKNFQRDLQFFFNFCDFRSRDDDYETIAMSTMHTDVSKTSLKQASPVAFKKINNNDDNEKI

Chain of Female germline-specific tumor suppressor gld-1 (Q17339 whole entry): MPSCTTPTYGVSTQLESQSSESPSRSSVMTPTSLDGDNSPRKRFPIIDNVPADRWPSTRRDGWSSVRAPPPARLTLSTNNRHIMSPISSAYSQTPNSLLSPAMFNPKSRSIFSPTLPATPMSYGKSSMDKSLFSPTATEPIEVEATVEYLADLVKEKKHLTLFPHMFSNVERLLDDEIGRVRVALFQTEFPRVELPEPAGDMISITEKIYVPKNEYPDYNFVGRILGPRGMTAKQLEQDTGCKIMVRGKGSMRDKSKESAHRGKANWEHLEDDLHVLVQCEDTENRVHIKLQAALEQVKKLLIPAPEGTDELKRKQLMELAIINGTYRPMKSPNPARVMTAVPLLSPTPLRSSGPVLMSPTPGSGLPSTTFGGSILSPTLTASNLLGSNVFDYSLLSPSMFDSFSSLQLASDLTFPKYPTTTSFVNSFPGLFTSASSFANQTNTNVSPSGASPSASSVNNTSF
Chain of G-protein coupled receptor 55 (Q9Y2T6 whole entry): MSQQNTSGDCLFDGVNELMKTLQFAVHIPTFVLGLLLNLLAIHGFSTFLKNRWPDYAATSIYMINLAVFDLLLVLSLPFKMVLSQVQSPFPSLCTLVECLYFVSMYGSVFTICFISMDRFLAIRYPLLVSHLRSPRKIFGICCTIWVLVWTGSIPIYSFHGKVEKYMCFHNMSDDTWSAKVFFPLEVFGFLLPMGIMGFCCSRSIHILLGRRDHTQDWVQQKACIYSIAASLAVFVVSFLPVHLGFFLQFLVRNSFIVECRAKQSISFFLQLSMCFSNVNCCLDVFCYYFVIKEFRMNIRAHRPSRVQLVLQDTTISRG
Chain of Protein Rev (P04618 whole entry): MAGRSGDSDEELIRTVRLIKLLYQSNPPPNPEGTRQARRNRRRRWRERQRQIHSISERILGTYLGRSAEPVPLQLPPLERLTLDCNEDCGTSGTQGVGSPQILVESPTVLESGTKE
Chain of Acyl-homoserine lactone acylase PvdQ (Q9I194 24-193 limits assumed): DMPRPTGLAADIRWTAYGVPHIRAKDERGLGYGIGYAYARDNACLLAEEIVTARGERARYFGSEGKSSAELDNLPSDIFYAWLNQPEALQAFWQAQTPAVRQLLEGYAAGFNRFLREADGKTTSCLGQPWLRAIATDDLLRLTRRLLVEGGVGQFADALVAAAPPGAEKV
Chain of Acyl-homoserine lactone acylase PvdQ (Q9I194 217-762 limits assumed): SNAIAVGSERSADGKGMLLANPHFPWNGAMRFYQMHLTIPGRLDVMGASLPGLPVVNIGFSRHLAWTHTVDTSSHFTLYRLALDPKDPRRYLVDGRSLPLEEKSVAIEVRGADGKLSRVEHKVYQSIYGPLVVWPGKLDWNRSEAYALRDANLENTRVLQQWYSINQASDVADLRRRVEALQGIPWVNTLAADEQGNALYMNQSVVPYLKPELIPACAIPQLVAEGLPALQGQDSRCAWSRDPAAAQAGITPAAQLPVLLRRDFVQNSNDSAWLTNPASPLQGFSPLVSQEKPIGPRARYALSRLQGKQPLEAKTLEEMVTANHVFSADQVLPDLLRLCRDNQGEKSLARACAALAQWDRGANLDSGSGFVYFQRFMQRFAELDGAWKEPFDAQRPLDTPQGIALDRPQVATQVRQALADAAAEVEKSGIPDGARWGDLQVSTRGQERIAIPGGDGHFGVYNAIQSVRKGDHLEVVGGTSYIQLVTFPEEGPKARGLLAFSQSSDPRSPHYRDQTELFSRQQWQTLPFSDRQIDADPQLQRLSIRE
Chain of Intestinal-type alkaline phosphatase (P09923 whole entry): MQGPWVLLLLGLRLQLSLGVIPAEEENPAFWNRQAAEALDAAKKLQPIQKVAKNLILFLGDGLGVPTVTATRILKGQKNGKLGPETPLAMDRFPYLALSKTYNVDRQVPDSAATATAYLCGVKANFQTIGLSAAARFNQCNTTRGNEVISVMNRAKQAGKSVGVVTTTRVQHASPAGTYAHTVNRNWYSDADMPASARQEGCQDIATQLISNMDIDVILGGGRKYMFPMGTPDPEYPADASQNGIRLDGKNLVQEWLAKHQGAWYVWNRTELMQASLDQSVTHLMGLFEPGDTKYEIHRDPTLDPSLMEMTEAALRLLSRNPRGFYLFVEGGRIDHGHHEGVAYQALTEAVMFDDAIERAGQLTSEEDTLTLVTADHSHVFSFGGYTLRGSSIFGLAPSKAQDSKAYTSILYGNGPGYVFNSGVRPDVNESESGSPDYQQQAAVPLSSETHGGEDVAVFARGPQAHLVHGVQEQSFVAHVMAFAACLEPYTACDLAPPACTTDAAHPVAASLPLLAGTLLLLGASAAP
Chain of Cytochrome P450 2C9 (P11712 whole entry): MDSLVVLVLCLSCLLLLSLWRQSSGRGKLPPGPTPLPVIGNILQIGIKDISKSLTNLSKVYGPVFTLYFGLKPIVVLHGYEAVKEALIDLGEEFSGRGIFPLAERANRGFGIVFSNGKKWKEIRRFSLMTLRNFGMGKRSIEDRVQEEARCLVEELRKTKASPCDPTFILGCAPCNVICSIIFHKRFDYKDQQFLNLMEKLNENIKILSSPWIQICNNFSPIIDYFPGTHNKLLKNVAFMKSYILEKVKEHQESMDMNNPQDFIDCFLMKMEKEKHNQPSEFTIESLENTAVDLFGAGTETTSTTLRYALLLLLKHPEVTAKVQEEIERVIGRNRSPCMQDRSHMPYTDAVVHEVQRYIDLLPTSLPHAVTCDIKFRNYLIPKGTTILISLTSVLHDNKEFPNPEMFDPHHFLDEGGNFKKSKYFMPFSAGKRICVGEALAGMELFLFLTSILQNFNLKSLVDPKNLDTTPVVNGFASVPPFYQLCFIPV

## O=C(Nc1ccc(Cl)c(Cl)c1)N(Cc1cccnc1)Cc1ccco1
[1]
  EC50: > 60 µM (not active)
[2]
  EC50: > 32 µM (inactive)
[3]
  EC50: 0.552 µM (active)

## CCCCn1c(=O)[nH]c2nc3cc(NC(C)=O)ccc3nc2c1=O
Protein Rev
  IC50: 6.5 µM (active)
[4]
  IC50: 0.84 µM (active)

## CN1CCN(C2Cc3ccccc3Sc3cc(C(F)(F)F)ccc32)CC1 (centres undefined)
Cells [5]
  IC50: 14.9 µM (active)
[6]
  CC50: > 20 µM (active)
[7]
  CC50: 17.4 µM (active)
[8]
  CC50: > 20 µM (active)
[9]
  CC50: 17.9 µM (active)
[10]
  AC50: 6.72 µM (active)

## CC1=NN(c2ccccc2)C(=O)/C1=C\c1c(C)[nH]n(-c2ccccc2)c1=O
Cytochrome P450 2C9
  AC50: 2.51 µM (inconclusive)
[11]
  IC50: > 100 µM (active)

## Cc1c(O)ccc(-c2n[nH]c(C(=O)O)c2-c2nc3ccccc3s2)c1O
Protein Rev
  IC50: > 75.4 µM (not active)
[12]
  EC50: 14 µM (inconclusive)
[4]
  IC50: 5.41 µM (active)
[13]
  EC50: 15.3 µM (active)

## CCCCOc1cccc(C2C(C(=O)c3ccc4c(c3)OCCO4)=C(O)C(=O)N2CCN2CCOCC2)c1 (centres undefined)
[14]
  IC50: > 100 µM (inactive)

## O=C(c1cccc([N+](=O)[O-])c1)N1CC2C3C=CC(C3)C2C1 (centres undefined)
[15]
  AC50: 7.93 µM (active)

## COc1ccccc1C(=O)Nc1nnc(-c2ccc(F)cc2)o1
[16]
  EC50: > 50 µM (active)

## CC(=O)c1c(C(C)=O)c(C)n(Cc2ccc3c(c2)OCO3)c1C
[2]
  EC50: > 32 µM (inactive)

## CCOc1ccc2nc(NC(=O)C3(C)CC3(Br)Br)sc2c1 (centres undefined)
[17]
  CC50: 19.4 µM (active)
Cells [18]
  IC50: 47.8 µM (active)

## COc1cccc(/C=N/NC(=O)CSCC(=O)Nc2ccccc2)c1O
[19]
  CC50: 21.3 µM (active)
Cells [20]
  EC50: 12.7 µM (active)
HEK293
  AC50: 25.4 µM (active)
Cells [21]
  EC50: > 350 µM (not active)

## CCOC(=O)c1c(CSc2ccccc2)n(C)c2ccc(O)c(CN3CCOCC3)c12
[22]
  IC50: > 35 µM (not active)
[23]
  IC50: 1.94 µM (active)
